MIC data for four compounds are collected here from ChEMBL document CHEMBL1140668, “Antifungal activity in triterpene glycosides from the sea cucumber Actinopyga lecanora” (2007).

Values after ≈ are worked out from the molar mass of the structure shown.

As a reminder, the MIC is the smallest concentration in the dilution series that meets the test's criterion for growth inhibition. Read a low MIC as inhibition by little substance.

One test has as its system Aspergillus fumigatus. As to the kind of experiment: Antifungal activity against Aspergillus fumigatus. Format: functional.
The test system of another test is Trichophyton benhamiae. Kind of test: Antifungal activity against Trichophyton mentagrophytes. Format: functional, Arthroderma benhamiae.
The subject of another test is Candida parapsilosis. Kind of test: Antifungal activity against Candida parapsilosis ATCC 22019. The format is functional. Conditions: Lodderomyces parapsilosis.
The test system of a further test is Sporothrix schenckii. Kind of test: Antifungal activity against Sporothrix schenckii. The format is functional.
Test [1] relates to Candida albicans. Kind of test: Antifungal activity against Candida albicans. Format: functional.
Test [2] relates to Cryptococcus neoformans. Kind of test: Antifungal activity against Cryptococcus neoformans. The format is functional.
The next test deals with Trichophyton rubrum. As to the kind of experiment: Antifungal activity against Trichophyton rubrum MTCC 296. The format is functional.
The subject of test [3] is Cryptococcus neoformans. Kind of test: Antifungal activity against Cryptococcus neoformans ATCC 6603. Format: functional.
In test [4] the test system is Candida albicans. Kind of test: Antifungal activity against Candida albicans ATCC 14053. The format is functional.
Test [5] has as its system Cryptococcus neoformans. As to the kind of experiment: Antifungal activity against Filobasidiella neoformans MTCC 1346. The format is functional.
A further test deals with Aspergillus terreus. Kind of test: Antifungal activity against Aspergillus terreus IMI 235704. Format: functional.
Test [6] has as its system Candida albicans. As to the kind of experiment: Antifungal activity against Candida albicans ATCC 66027. The format is functional.
A further test has as its system Talaromyces funiculosus. As to the kind of experiment: Antifungal activity against Penicillium funiculosum MTCC 287. The format is functional.
For the next test, the system named is Aspergillus flavus. Kind of test: Antifungal activity against Aspergillus flavus. Format: functional.
The test system of test [7] is Candida albicans. Kind of test: Antifungal activity against Candida albicans MTCC 183. Format: functional.
Test [8] relates to Candida albicans. As to the kind of experiment: Antifungal activity against Candida albicans ATCC 10231. The format is functional.
For the next test, the system named is Penicillium ochrochloron. Kind of test: Antifungal activity against Penicillium ochrochloron MTCC 517. Format: functional.
In another test the test system is Pichia kudriavzevii. As to the kind of experiment: Antifungal activity against Candida krusei ATCC 6258. Format: functional.
Test [9] relates to Candida albicans. Kind of test: Antifungal activity against Candida albicans ATCC 60193. The format is functional.
The subject of test [10] is Candida albicans. Kind of test: Antifungal activity against Candida albicans MTCC 227. The format is functional.

Consider `OC(Cn1cncn1)(Cn1cncn1)c1ccc(F)cc1F` [FLUCONAZOLE], for which the minimal inhibitory concentration (MIC) in the test with Aspergillus fumigatus was determined as 2 µg/mL (≈ 6.53 µM); against Trichophyton benhamiae, 2 µg/mL (≈ 6.53 µM); in the test with Candida parapsilosis, 1 µg/mL (≈ 3.27 µM); against Sporothrix schenckii it was 1 µg/mL (≈ 3.27 µM); against Candida albicans [1], 0.5 µg/mL (≈ 1.63 µM); in the test with Cryptococcus neoformans [2], 1 µg/mL (≈ 3.27 µM).
In the case of `CO[C@@H]1[C@@H](O)[C@H](O[C@@H]2[C@@H](O)[C@H](O[C@H]3[C@H](O)[C@@H](O)[C@H](O[C@H]4[C@H](O[C@H]5CC[C@]6(C)C7=C[C@H](O)[C@@]89C(=O)O[C@@](C)(C%10CCC(C)(C)O%10)[C@@]8(O)CC[C@@]9(C)[C@@H]7CC[C@H]6C5(C)C)OC[C@@H](OS(=O)(=O)[O-])[C@@H]4O)O[C@@H]3C)O[C@H](CO)[C@H]2O)O[C@H](CO)[C@H]1O.[Na+]` (some centres not stated) [HOLOTHURIN A], the MIC in the test with Aspergillus fumigatus stood at 50 µg/mL; against Trichophyton benhamiae, 25 µg/mL; in the test on Sporothrix schenckii, 25 µg/mL; against Candida albicans [1], 50 µg/mL; against Cryptococcus neoformans [2], 25 µg/mL.
As for `CC(=O)O[C@H]1C[C@@]2(C)C3=CCC4C(C)(C)[C@@H](O[C@@H]5OC[C@@H](O)[C@H](O)[C@H]5O)CC[C@]4(C)C3CCC23C(=O)O[C@@](C)(CCCC(C)C)[C@@H]13` (some centres not stated), the MIC in the test on Aspergillus fumigatus is 50 µg/mL (≈ 77.3 µM); against Trichophyton benhamiae, 25 µg/mL (≈ 38.6 µM); in the test with Candida parapsilosis, 50 µg/mL (≈ 77.3 µM); against Sporothrix schenckii, 25 µg/mL (≈ 38.6 µM); against Candida albicans [1], 50 µg/mL (≈ 77.3 µM); against Cryptococcus neoformans [2], 25 µg/mL (≈ 38.6 µM).
For the compound `C[C@H]1O[C@@H](O[C@H]2[C@H](O[C@H]3CC[C@]4(C)C5=C[C@H](O)C67C(=O)O[C@@](C)(C8CCC(C)(C)O8)[C@@]6(O)CC[C@@]7(C)[C@@H]5CCC4C3(C)C)OC[C@@H](OS(=O)(=O)[O-])[C@@H]2O)[C@H](O)[C@@H](O)[C@@H]1O.[Na+]` (some centres not stated) [HOLOTHURIN B], the minimum inhibitory concentration (MIC) in the test with Trichophyton rubrum was found to be 3.12 µg/mL; against Cryptococcus neoformans [3], 3.12 µg/mL; against Candida albicans [4] it was 12.5 µg/mL; against Aspergillus fumigatus, 3.12 µg/mL; against Cryptococcus neoformans [5], 6.25 µg/mL; in the test with Trichophyton benhamiae it was 1.56 µg/mL. Further, the MIC is 6.25 µg/mL in the test on Candida parapsilosis; 25 µg/mL in the test with Aspergillus terreus; 25 µg/mL against Candida albicans [6]; 12.5 µg/mL against Talaromyces funiculosus; 1.56 µg/mL against Sporothrix schenckii; 3.12 µg/mL in the test with Candida albicans [1]. The MIC was determined as 12.5 µg/mL in the test on Aspergillus flavus; 25 µg/mL in the test on Candida albicans [7]; 25 µg/mL against Candida albicans [8]; 3.12 µg/mL against Cryptococcus neoformans [2]; 12.5 µg/mL in the test with Penicillium ochrochloron; 12.5 µg/mL in the test with Pichia kudriavzevii. Moreover, the MIC against Candida albicans [9] and with Candida albicans [10] was 12.5 µg/mL each time.
